Data on five molecules can be found in patent US10988523B2, “Modified lipidated Relaxin B chain peptides and their therapeutic use” (Sanofi, priority 2018, dated 2021).

The nature of this data set: Pharmacokinetic (PK) determination after i.v. or s.c. administration to rats. The settings on record: Rat PK; for C0 / half-life: iv; for C0 / half-life / T½: 1 mg/kg i.v.; for C0: extrapolated plasma concentration at t=0, read-out: C0; for half-life: read-out: T½ (converted); for Cmax / Tmax: 3 mg/kg s.c.; for bioavailability: subcutaneous. It is filed as in vivo, Sprague Dawley rats. An outline of the steps: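 Sprague Dawley rats received peptide in PBS at 1 mg/kg i.v. or 3 mg/kg s.c., dose corrected for salts, solvent and purity. Plasma analysed by LC/MS after protein precipitation; non-compartmental PK, BLQ values set to zero, F% as dose-corrected s.c./i.v. AUC ratio.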

[1] abbreviates: Sprague Dawley, plasma, 3 mg/kg s.c. vs 1 mg/kg i.v., dose-corrected AUC ratio.

SMILES strings stand for the structures. *1 amine or outer side, *2 acyl side, *3 side chain or, on linkers, in order; H or OH if unused. Where a SMILES comes first, the peptide text is derived from it. Side-chain parts run from the residue outwards. [ ]: non-standard residue; d: D form. The star is where a group is joined. PEG12 = NCCOCCOCCOCCOCCOCCOCCOCCOCCOCCOCCOCCOCCC(=O)O; γGlu = O=C(O)[C@H](CCC(=O)[*:2])N[*:1]; Stearoyl = CCCCCCCCCCCCCCCCCC(=O)*; Palmitoyl = CCCCCCCCCCCCCCCC(=O)*; αMeK = C[C@](N)(CCCCN)C(=O)O; Nle = CCCC[C@H](N)C(=O)O; AEEA = NCCOCCOCC(=O)O; Aib = CC(C)(N)C(=O)O

`CCCCCCCCCCCCCCCC(=O)N[C@@H](CCC(=O)N[C@@H](CCC(=O)N[C@@H](CCC(=O)N[C@@H](CCC(=O)NCCCC[C@H](NC(=O)COCCOCCNC(=O)COCCOCCNC(=O)COCCOCCNC(=O)COCCOCCNC(=O)[C@H](CCCCNC(C)=O)NC(=O)[C@H](C)NC(=O)[C@H](CCCNC(=N)N)NC(=O)[C@](C)(CCCCN)NC(=O)[C@H](CO)NC(=O)[C@H](Cc1ccccc1)NC(=O)[C@@H](NC(=O)[C@H](CO)NC(=O)[C@H](CCCC)NC(=O)CNC(=O)[C@H](CCC(=O)O)NC(=O)C(C)(C)NC(=O)C(C)(C)NC(=O)[C@@H](NC(=O)[C@H](CCCCNC(C)=O)NC(=O)[C@H](C)NC(=O)[C@H](CCCNC(=N)N)NC(=O)[C@@H](NC(=O)[C@H](CCCCN)NC(=O)[C@H](CCC(=O)O)NC(=O)[C@H](CCCNC(=N)N)NC(=O)CNC(=O)[C@H](CCC(=O)O)NC(=O)[C@H](CC(C)C)NC(C)=O)C(C)C)[C@@H](C)CC)[C@@H](C)O)C(N)=O)C(=O)O)C(=O)O)C(=O)O)C(=O)O` [compound 150] (Ac-LEGREKVRAK(Ac)I[Aib][Aib]EG[Nle]STFS[αMeK]RAK(Ac)[AEEA][AEEA][AEEA][AEEA]K([γGlu-γGlu-γGlu-γGlu-Palmitoyl])-NH2): the C0 (Sprague Dawley) is 3.6 µM. The half-life (Sprague Dawley, plasma) was 5.7 h. Further, for the setting “Sprague Dawley, plasma, sc”, the highest level (Cmax) was 2.1 µM and the time of peak concentration (Tmax) was 8 h. Moreover, under setting [1], the bioavailability is 76%.

For the molecule `CCCCCCCCCCCCCCCCCC(=O)N[C@@H](CCC(=O)N[C@@H](CCC(=O)N[C@@H](CCC(=O)NCCCC[C@H](NC(=O)CCOCCOCCOCCOCCOCCOCCOCCOCCOCCOCCOCCOCCNC(=O)[C@H](CCCCNC(C)=O)NC(=O)[C@H](CCCCN)NC(=O)[C@H](CCCNC(=N)N)NC(=O)C(C)(C)NC(=O)[C@H](CO)NC(=O)[C@H](Cc1c[nH]c2ccccc12)NC(=O)[C@@H](NC(=O)[C@H](CO)NC(=O)[C@H](CCCC)NC(=O)CNC(=O)[C@H](CCC(=O)O)NC(=O)C(C)(C)NC(=O)C(C)(C)NC(=O)[C@@H](NC(=O)[C@H](CCCCNC(C)=O)NC(=O)[C@H](C)NC(=O)[C@H](CCCNC(=N)N)NC(=O)[C@@H](NC(=O)[C@H](CCCCN)NC(=O)[C@H](CCC(=O)O)NC(=O)[C@H](CCCNC(=N)N)NC(=O)CNC(=O)[C@H](CCC(=O)O)NC(=O)[C@H](CC(C)C)NC(C)=O)C(C)C)[C@@H](C)CC)[C@@H](C)O)C(N)=O)C(=O)O)C(=O)O)C(=O)O` [compound 33] (Ac-LEGREKVRAK(Ac)I[Aib][Aib]EG[Nle]STWS[Aib]RKK(Ac)[PEG12]K([γGlu-γGlu-γGlu-Stearoyl])-NH2), the “T½” value came out at 4.30 h. In addition, where the note is “Sprague Dawley”, the C0 is 4.2 µM. For the same molecule, for the setting “Sprague Dawley, plasma, sc”, the Cmax stood at 2.5 µM and the Tmax was found to be 8 h. Also, the bioavailability under setting [1] came to 60%.

For `CCCCCCCCCCCCCCCC(=O)N[C@@H](CCC(=O)N[C@@H](CCC(=O)N[C@@H](CCC(=O)N[C@@H](CCC(=O)NCCCC[C@H](NC(=O)COCCOCCNC(=O)COCCOCCNC(=O)COCCOCCNC(=O)COCCOCCNC(=O)[C@H](CCCCNC(C)=O)NC(=O)[C@H](C)NC(=O)[C@H](CCCNC(=N)N)NC(=O)[C@](C)(CCCCN)NC(=O)[C@H](CO)NC(=O)[C@H](Cc1ccccc1)NC(=O)[C@@H](NC(=O)[C@H](CO)NC(=O)[C@H](CCC(N)=O)NC(=O)CNC(=O)[C@H](CCC(=O)O)NC(=O)C(C)(C)NC(=O)C(C)(C)NC(=O)[C@@H](NC(=O)[C@H](CCCCNC(C)=O)NC(=O)[C@H](C)NC(=O)[C@H](CCCNC(=N)N)NC(=O)[C@@H](NC(=O)[C@H](CCCCN)NC(=O)[C@H](CCC(=O)O)NC(=O)[C@H](CCCNC(=N)N)NC(=O)CNC(=O)[C@H](CCC(=O)O)NC(=O)[C@H](CC(C)C)NC(C)=O)C(C)C)[C@@H](C)CC)[C@@H](C)O)C(N)=O)C(=O)O)C(=O)O)C(=O)O)C(=O)O` [compound 170] (Ac-LEGREKVRAK(Ac)I[Aib][Aib]EGQSTFS[αMeK]RAK(Ac)[AEEA][AEEA][AEEA][AEEA]K([γGlu-γGlu-γGlu-γGlu-Palmitoyl])-NH2), the C0 (Sprague Dawley) was 7.76 µM. In addition, the half-life (Sprague Dawley, plasma) is 10 h. Further, under “Sprague Dawley, plasma, sc”, the peak level (Cmax) was 0.78 µM and the Tmax was 4 h. Further, the bioavailability under setting [1] was 87%.

Regarding `CCCCCCCCCCCCCCCCCC(=O)N[C@@H](CCC(=O)N[C@@H](CCC(=O)N[C@@H](CCC(=O)NCCOCCOCC(=O)NCCOCCOCC(=O)NCCOCCOCC(=O)NCCCC[C@H](NC(=O)[C@H](CCCCNC(C)=O)NC(=O)[C@H](CCCCN)NC(=O)[C@H](CCCNC(=N)N)NC(=O)C(C)(C)NC(=O)[C@H](CO)NC(=O)[C@H](Cc1c[nH]c2ccccc12)NC(=O)[C@@H](NC(=O)[C@H](CO)NC(=O)[C@H](CCCC)NC(=O)CNC(=O)[C@H](CCC(=O)O)NC(=O)C(C)(C)NC(=O)C(C)(C)NC(=O)[C@@H](NC(=O)[C@H](CCCCNC(C)=O)NC(=O)[C@H](C)NC(=O)[C@H](CCCNC(=N)N)NC(=O)[C@@H](NC(=O)[C@H](CCCCN)NC(=O)[C@H](CCC(=O)O)NC(=O)[C@H](CCCNC(=N)N)NC(=O)CNC(=O)[C@H](CCC(=O)O)NC(=O)[C@H](CC(C)C)NC(C)=O)C(C)C)[C@@H](C)CC)[C@@H](C)O)C(N)=O)C(=O)O)C(=O)O)C(=O)O` [compound 81] (Ac-LEGREKVRAK(Ac)I[Aib][Aib]EG[Nle]STWS[Aib]RKK(Ac)K([AEEA-AEEA-AEEA-γGlu-γGlu-γGlu-Stearoyl])-NH2), the “T½” value is 3.90 h and the Cmax turned out to be 1.5 µM. The F % (3 mg/kg s.c. vs 1 mg/kg i.v., dose-corrected AUC ratio) worked out at 74%. Further, the C0 (Sprague Dawley) was 2.6 µM. Besides, the time of peak concentration (Tmax) (Sprague Dawley, plasma, sc) was found to be 8 h.

For the molecule `CCCCCCCCCCCCCCCC(=O)N[C@@H](CCC(=O)N[C@@H](CCC(=O)N[C@@H](CCC(=O)NCCOCCOCC(=O)NCCOCCOCC(=O)NCCCC[C@H](NC(=O)[C@H](CCCCN)NC(=O)[C@H](CCCNC(=N)N)NC(=O)C(C)(C)NC(=O)[C@H](CO)NC(=O)[C@H](Cc1c[nH]c2ccccc12)NC(=O)[C@@H](NC(=O)[C@H](CO)NC(=O)[C@H](CCCC)NC(=O)CNC(=O)[C@H](CCC(=O)O)NC(=O)C(C)(C)NC(=O)C(C)(C)NC(=O)[C@@H](NC(=O)[C@H](CCC(N)=O)NC(=O)[C@H](C)NC(=O)[C@H](CCCNC(=N)N)NC(=O)[C@@H](NC(=O)[C@H](CCCCN)NC(=O)[C@H](CCC(=O)O)NC(=O)[C@H](CCCNC(=N)N)NC(=O)CNC(=O)[C@H](CCC(=O)O)NC(=O)[C@H](CC(C)C)NC(C)=O)C(C)C)[C@@H](C)CC)[C@@H](C)O)C(N)=O)C(=O)O)C(=O)O)C(=O)O` [compound 58] (Ac-LEGREKVRAQI[Aib][Aib]EG[Nle]STWS[Aib]RKK([AEEA-AEEA-γGlu-γGlu-γGlu-Palmitoyl])-NH2), the C0 (Sprague Dawley) was 4.02 µM. Under “Sprague Dawley, plasma”, the half-life was 7.9 h. Moreover, for the setting “Sprague Dawley, plasma, sc”, the Cmax came out at 1.34 µM and the Tmax turned out to be 6 h. Moreover, the bioavailability under setting [1] was found to be 55%.

As usually defined, the Cmax is the peak of the concentration-time curve. As a reminder, the Tmax is the time at which the peak concentration occurs. Usually bioavailability stands for dose-corrected exposure relative to a reference, in per cent.
